Values of other authors as cited in US20240352056A1, “Improved methods for production of cyclic guanosine-monophosphate analogues” (Mireca Medicines GmbH, priority 2021, published 2024).

Key:
[1] = system: cGMP-dependent protein kinase
[2] = system: cAMP-dependent protein kinase
[3] = system: rd1 and rd2 photoreceptors; settings: rd1 and rd2 mouse retinitis pigmentosa models, in vitro and in vivo

SMILES	antagonism of the activation of the cGMP-dependent protein kinase [1]	binding to cGMP-dependent protein kinase and stimulation of its phosphotransferase activity [1]	antagonism / inhibition of cAMP-dependent protein kinase [2]	also measured
O=c1c2nc(Br)n([C@@H]3O[C@@H]4CO[P@@](O)(=S)O[C@H]4[C@H]3O)c2nc2[nH]c(-c3ccccc3)cn12 [1a, Triethylammonium Rp-8-Bromo-β-phenyl-1,N2-ethenoguanosine-3′, 5′-cyclic monophosphorothioate]	–	–	–	neuroprotective effects in vivo (photoreceptors): potent neuroprotective effects in vivo; activity towards PKG (agonist or antagonist) (PKG): antagonistic activity towards PKG
Nc1nc2c(nc(Cl)n2[C@@H]2O[C@@H]3CO[P@@](O)(=S)O[C@H]3[C@H]2O)c(=O)[nH]1 [(Rp)-8-Cl-cGMPS, 8-chloroguanosine 3′, 5′-monophosphorothioate]	antagonized the activation of the cGMP-dependent protein kinase	bound to the enzyme without stimulation of its activity	weak inhibitor	selectivity for cGMP-dependent over cAMP-dependent protein kinase [1]: rather selective inhibitor of the cGMP-dependent protein kinase
Nc1nc2c(ncn2[C@@H]2O[C@@H]3COP(O)(=S)O[C@H]3[C@H]2O)c(=O)[nH]1 (stereo partly drawn) [(Rp)-cGMPS, guanosine 3′, 5′-monophosphorothioate]	antagonized the activation of the cGMP-dependent protein kinase	bound to the enzyme without stimulation of its activity	antagonized the activation of cAMP-dependent protein kinase	–
Nc1nc2c(nc(Cl)n2[C@@H]2O[C@@H]3CO[P@@](O)(=S)O[C@H]3[C@H]2O)c(=O)[nH]1 [(Sp)-8-Cl-cGMPS, 8-chloroguanosine 3′, 5′-monophosphorothioate]	–	stimulated its phosphotransferase activity	–	–
Nc1nc2c(ncn2[C@@H]2O[C@@H]3COP(O)(=S)O[C@H]3[C@H]2O)c(=O)[nH]1 (stereo partly drawn) [(Sp)-cGMPS, guanosine 3′, 5′-monophosphorothioate]	–	stimulated its phosphotransferase activity	–	–
Nc1nc2c(nc(Br)n2[C@@H]2O[C@@H]3COP(O)(=S)O[C@H]3[C@H]2O)c(=O)[nH]1 (stereo partly drawn) [Rp-8-Br-cGMPS]	–	–	–	protection of photoreceptors [3]: protection of rd1 and rd2 photoreceptors
